Measurements published in paper PMC3384297 (2012).

Assays:
Test in all cases: FRET melting
[1] = tested on: FGD (DNA, G4) GGGTGTGGGTGTGGGTGTGGG; details: 5 mM K+, 95 mM Li+; 10 mM lithium cacodylate pH 7.2; 0.2 µM DNA, 1 µM porphyrin
[2] = tested on: F21D (DNA, G4) GGGTTAGGGTTAGGGTTAGGG; details: 5 mM K+, 95 mM Li+; 10 mM lithium cacodylate pH 7.2; 0.2 µM DNA, 1 µM porphyrin
[3] = tested on: F21D (DNA, G4) GGGTTAGGGTTAGGGTTAGGG; details: 5 mM K+, 95 mM Li+; 10 mM Li cacodylate pH 7.2; 0.2 µM DNA, 1 µM NMM
[4] = tested on: FGD (DNA, G4) GGGTGTGGGTGTGGGTGTGGG; details: 5 mM K+, 95 mM Li+; 10 mM Li cacodylate pH 7.2; 0.2 µM DNA, 1 µM NMM

Structure (SMILES)	ΔT1/2 [1] [°C]	ΔT1/2 [2] [°C]	ΔT1/2 [3] [°C]	ΔT1/2 [4] [°C]
C=Cc1c(C)c2cc3c(C=C)c(C)c(cc4nc(cc5nc(cc1[nH]2)C(C)=C5CCC(=O)O)C(CCC(=O)O)=C4C)n3C	9.8 ± 0.3	8.5 ± 0.6		
CCC1=C(C)c2cc3[nH]c(cc4nc(cc5[nH]c(cc1n2)c(C)c5CC)C(C)=C4CCC(=O)O)c(CCC(=O)O)c3C	0.8 ± 0.3	0.2 ± 0.3		
C=CC1=C(C)c2cc3[nH]c(cc4nc(cc5[nH]c(cc1n2)c(C)c5CCC(=O)O)C(CCC(=O)O)=C4C)c(C)c3C=C	0.2 ± 0.3	0.2 ± 0.3		
C[n+]1ccc(-c2c3nc(c(-c4cc[n+](C)cc4)c4ccc([n-]4)c(-c4cc[n+](C)cc4)c4nc(c(-c5cc[n+](C)cc5)c5ccc2[n-]5)C=C4)C=C3)cc1.[Zn+2]	22.1 ± 0.9	23 ± 1		
CCc1c(C)c2cc3nc(cc4nc(cc5c(CC)c(C)c(cc1[nH]2)n5C)C(C)=C4CCC(=O)O)C(CCC(=O)O)=C3C			14 ± 2	12.5 ± 0.3
C[n+]1ccc(-c2c3nc(c(-c4cc[n+](C)cc4)c4ccc([nH]4)c(-c4cc[n+](C)cc4)c4nc(c(-c5cc[n+](C)cc5)c5ccc2[nH]5)C=C4)C=C3)cc1	31 ± 2	34 ± 2		
